Marks after values point to notes of the source that are not given here.
Legend:
[1] = biological target: T1, WT-HMBS (Homo sapiens, UniProt P08397); assay: Steady-state enzyme kinetics of HMBS (KM, Vmax); format: biochemical; settings: for Effect on steady-state enzyme kinetics of HMBS: 84 μM compound; for Vmax: variable PBG (0-1 mM), 37° C.
T1 construct: Full-length HMBS was cloned into pET-28a(+)-TEV vector and transformed into BL21 (DE3) cells for expression; 6xHis (N, cleaved yes); TEV protease cleavage site (N, cleaved yes); made in house; host or cells: E. coli BL21 (DE3)
T1 sequence (P08397 1-361): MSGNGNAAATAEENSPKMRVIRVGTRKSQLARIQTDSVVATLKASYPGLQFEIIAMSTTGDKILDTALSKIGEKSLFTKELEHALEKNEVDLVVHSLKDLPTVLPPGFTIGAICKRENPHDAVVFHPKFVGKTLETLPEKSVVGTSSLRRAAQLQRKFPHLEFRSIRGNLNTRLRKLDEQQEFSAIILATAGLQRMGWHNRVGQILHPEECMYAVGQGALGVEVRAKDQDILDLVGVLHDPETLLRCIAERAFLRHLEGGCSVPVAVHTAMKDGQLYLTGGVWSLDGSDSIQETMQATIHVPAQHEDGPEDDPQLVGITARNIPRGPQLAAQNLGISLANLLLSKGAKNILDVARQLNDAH
Description: The effect of the compounds on the stability of HMBS activity was assayed by pre-incubating the HMBS (4-5 μg) in 50 mM HEPES pH 8.2, 84 μM compound and 2% DMSO for 20 min at 70° C., and then placed on ice for 5 min. The enzymatic activity at 37° C. was subsequently measured as reported previously (Bustad et al., Bioscience reports 2013; 3 3(4)). Controls without compound but with equal concentration of DMSO were included. The remaining activity in the presence of compounds was normalized relative to DMSO-control (relative activity). […] USA, www.graphpad.com.
(§1) Limited tryptic proteolysis was also applied to compound BG-1. Proteolysis of WT-HMBS provided three major bands with relative content 34.5±0.3%, 14.7±0.8% and 50.9±0.5%, corresponding to remaining full-length HMBS (˜42.5 kDa), and two fragments of ˜41.0 kDa and ˜31.5 kDa, respectively (FIG. 1). […] The effect of this compound at 84 μM on the steady-state enzyme kinetics of HMBS was then calculated (Table 2).

[2] = biological target: T2, HMBS in HepG2 cells over-expressing HMBS (Homo sapiens, UniProt P08397); assay: HMBS protein level in WT-HMBS stably transfected HepG2 cells (western immunoblot); format: cell-based; settings: 0-168 μM compound, 2% DMSO, 24 h; quantitative western immunoblotting
T2 construct: expressed in transfected cells; host or cells: HepG2 (stably transfected, G418-selected)
T2 sequence (P08397 1-361): T1 sequence (P08397 1-361)
Description: The human hepatoma HepG2 cells were obtained from Leibniz-Institut DSMZ—Deutsche Sammlung von Mikroorganismen und Zellkulturen GmbH. Cells were maintained in RPMI 1640, GlutaMAX™ (Thermo Fisher Scientific) medium supplemented with 10% heat-inactivated fetal bovine serum and 1% penicillin-streptomycin (Thermo Fisher Scientific) in a humidified incubator with 5% CO2 at 37° C. HMBS cDNA was inserted into the pcDNA3.1(+) cloning vector (Thermo Fisher Scientific). The HepG2 cells were then transfected with the pcDNA3.1(+) vector containing HMBS using FuGENE®HD Transfection Reagent (Promega, Madison, Wis.) according to the manufacturer's recommendations. Stably transfected clones were selected for resistance to the neomycin analogue G418 (Thermo Fisher Scientific). WT-HMBS transfected HepG2 cells (2×10^6) were seeded and grown for 22 h before compounds were added to final concentrations of 0, 40, 84, 120 and 168 μM in 2% DMSO. Cells were harvested after 24 h and analyzed as described below. […]
Cell lysate samples (20 μg total protein) were separated by electrophoresis and subsequently transferred to a PVDF transfer membrane (Bio-Rad). […] Chemiluminescence of secondary Ab-HRP conjugates was elicited using Luminata™ Crescendo Western HRP Substrate (Merck Millipore, Burlington, Mass.), imaged with Gel Doc™ XR+ (Bio-Rad) and quantified using Image Lab software (Bio-Rad). […]

[3] = biological target: T1, WT-HMBS; assay: Limited proteolysis by trypsin; format: biochemical; settings: 84 μM compound; for Protection against tryptic proteolysis: 2% DMSO
Description: Limited proteolysis by trypsin was performed at 37° C. in 20 mM HEPES, 150 mM NaCl, 2% DMSO, pH 8.2, with 0.15 μg/μl HMBS in the absence (DMSO-control) or presence of 84 μM compound and 2% DMSO. The proteolysis was initiated by adding 1 μg/ml TPCK-treated trypsin (Sigma-Aldrich). After 30 min, aliquots were removed and transferred to Laemmli loading buffer containing 2 μg/ml soybean trypsin inhibitor. Samples resolved by electrophoresis with 10% Mini-Protean® TGX™ gels (Bio-Rad Laboratories, Inc.) were analyzed using the Image Lab™ software (Bio-Rad Laboratories, Inc.). The unpaired t-test (two tailed) was performed using GraphPad Prism.
as §1

| Compound | Effect on steady-state enzyme kinetics of HMBS [1] | Vmax ([1]; 84 μM compound in 2% DMSO, DMSO control 61 ± 2) [nmol/min/mg] | Relative amount of HMBS in HepG2 cells [2] | Protection against tryptic proteolysis ([3]; remaining full-length HMBS relative to DMSO) | Protection against proteolysis ([3]; limited tryptic proteolysis) | Vmax ([1]; Table 3, 84 μM compound with 2% DMSO, control 61 ± 2) [nmol/min/mg] | Protection against tryptic proteolysis ([3]; Table 3) |
| --- | --- | --- | --- | --- | --- | --- | --- |
| O=Cc1cc(Cc2ccccc2Cl)cc([N+](=O)[O-])c1O [BG-1] | reduction in both KM and Vmax | 56 ± 1 | increasing relative amount of HMBS with increasing concentration | ++** (++, 10% remaining full-length HMBS relative to DMSO.) | exhibited protection against proteolysis | – | – |
| O=C(c1ccccc1)c1ccc(Cl)c([N+](=O)[O-])c1 [BG-2] | weak mixed inhibitory effect | – | increased the HMBS protein levels similarly to BG-1 | – | – | 54 ± 2 | +* (+, >4%) |
